Laboratory results as given in US9205085B2, “Tricyclic amino containing compounds for treatment or prevention of symptoms associated with endocrine dysfunction” (Emory University, priority 2011, dated 2015).
Values joined by “and” are separate entries in the source; they are usually repeats but may differ in a detail not shown here. Identical values can stand only once. One block for each compound: values may come before it.

What was measured:
SDF-1/CXCR4 [1] = target: T1, SDF-1/CXCR4 (Homo sapiens (Human), UniProt P61073); test: cAMP assay (SDF-1/CXCR4-mediated cAMP reduction); format: cell-based; conditions: for concentration effective in counteracting/blocking SDF-1 function: cAMP reduction by SDF-1; for effect of SDF-1 on cAMP reduction: pre-treatment with compound, SDF-1 EC80 150 ng/ml
Protocol: Because the major signaling pathway of CXCR4/SDF-1 involves the pertussis toxin-sensitive G protein Gi, compounds described herein were tested as to whether they inhibited SDF-1/CXCR4-mediated cAMP reduction. The absorption increase at 665 nm was determined by varying the concentration of SDF-1 (0-200 ng/ml) to determine EC80 to be 150 ng/ml.

[2] = target: SDF-1 binding domain of CXCR4 (Homo sapiens (Human), UniProt P61073); test: Competitive binding assay against biotin-labeled TN14003; conditions: competition with biotin-labeled TN14003; read-out: Effective concentrations (EC50)
Excerpt: Aa competitive binding assay using biotin-labeled TN14003 and streptavidin-conjugated rhodamine was developed to determine the binding efficiency of new chemical entities to the SDF-1 binding domain of CXCR4.

[3] = Initial pharmacokinetic study in mice; format: in vivo; conditions: intraperitoneally (IP) and orally
Excerpt: (§1) Oral bioavailability and sustained plasma exposure was consistently observed in multiple species for certain compounds.

[4] = Pharmacokinetic study in rats; format: in vivo; conditions: 10 mg/kg
Excerpt: as §1

[5] = Pharmacokinetic/pharmacodynamic study in cynomolgus monkeys; format: in vivo
Excerpt: as §1

In vitro Ames test = format: cell-based
CHO cells = test: In vitro chromosome aberration screening test; format: cell-based; conditions: any dose level up to 2 mM, 4 hour with S9, 20 hour without S9
Protocol: (§2) Sufficiently scorable cells in the presence of S9 were available for 4 hour treatment and in the absence of S9 for a 20 hour treatment. Finally, MSX-122 was tested for its potential to interfere with the rapid delayed rectifier current (IKr) in human ventricles through the cardiac potassium channel, hERG since inhibition of IKr has been reported to be the most common cause of cardiac action potential prolongation by non-cardiac drugs.

hERG channel = hERG channel (Homo sapiens (Human), UniProt Q12809); test: hERG channel current (IKr) inhibition; format: biochemical
Protocol: as §2

hERG channel (IKr) = hERG channel (IKr) (Homo sapiens (Human), UniProt Q12809); test: hERG channel current (IKr) inhibition; format: biochemical; conditions: human; 1 μM; read-out: inhibition of hERG channel currents
Protocol: as §2

[6] = 28-day oral toxicology study in rats; format: in vivo; conditions: 250 and 600 mg/kg orally once per day for 28 days
Protocol: (§3) In initial studies, three groups of rats (5 males and 5 females per group) were dosed with 0, 250 and 600 mg/kg of MSX-122 orally once per day for 28 days. […] A 5-day repeat dose study was carried out in two non-naïve cynomolgus monkeys (1 male and 1 female) and two naïve cynomolgus monkeys (1 male and 1 female) dosed with 1,000 and 2,000 mg/kg, respectively, orally once per day for 5 days.

[7] = 5-day repeat dose study in cynomolgus monkeys; format: in vivo
Protocol: as §3

hot flashes = test: Treatment of hot flashes in a patient; format: in vivo, human; conditions: person, 50 mg/day oral, after third treatment
Protocol: An approximately 70 kg person with a history of aggressive high grade serous carcinomy in their right fallopian tube, a complete hysterectomy and bilateral oophorectomy after previous treatments with VEGF-Trap and docetaxel, Carboplatin and taxol and doxil was treated with MSX-122, 50 mg/day oral.

SDF-1/CXCR4 [8] = target: T1, SDF-1/CXCR4; test: IC50 vs SDF-1 (table of specific compounds); format: binding
[9] = cynomolgus monkeys, oral 5 and 10 mg/kg
[10] = cynomolgus monkeys, 1,000 and 2,000 mg/kg orally once per day for 5 days

T1 sequence (P61073 whole entry): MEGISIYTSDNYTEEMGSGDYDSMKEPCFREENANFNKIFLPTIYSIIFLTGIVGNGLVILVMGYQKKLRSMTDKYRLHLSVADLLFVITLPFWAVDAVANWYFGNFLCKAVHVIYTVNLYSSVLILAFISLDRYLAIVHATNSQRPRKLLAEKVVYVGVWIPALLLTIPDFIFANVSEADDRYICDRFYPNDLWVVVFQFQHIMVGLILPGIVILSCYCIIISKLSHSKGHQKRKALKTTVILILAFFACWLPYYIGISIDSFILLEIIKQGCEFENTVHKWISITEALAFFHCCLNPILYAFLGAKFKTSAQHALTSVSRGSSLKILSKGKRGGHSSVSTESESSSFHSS
Sequence of hERG channel (Q12809 whole entry): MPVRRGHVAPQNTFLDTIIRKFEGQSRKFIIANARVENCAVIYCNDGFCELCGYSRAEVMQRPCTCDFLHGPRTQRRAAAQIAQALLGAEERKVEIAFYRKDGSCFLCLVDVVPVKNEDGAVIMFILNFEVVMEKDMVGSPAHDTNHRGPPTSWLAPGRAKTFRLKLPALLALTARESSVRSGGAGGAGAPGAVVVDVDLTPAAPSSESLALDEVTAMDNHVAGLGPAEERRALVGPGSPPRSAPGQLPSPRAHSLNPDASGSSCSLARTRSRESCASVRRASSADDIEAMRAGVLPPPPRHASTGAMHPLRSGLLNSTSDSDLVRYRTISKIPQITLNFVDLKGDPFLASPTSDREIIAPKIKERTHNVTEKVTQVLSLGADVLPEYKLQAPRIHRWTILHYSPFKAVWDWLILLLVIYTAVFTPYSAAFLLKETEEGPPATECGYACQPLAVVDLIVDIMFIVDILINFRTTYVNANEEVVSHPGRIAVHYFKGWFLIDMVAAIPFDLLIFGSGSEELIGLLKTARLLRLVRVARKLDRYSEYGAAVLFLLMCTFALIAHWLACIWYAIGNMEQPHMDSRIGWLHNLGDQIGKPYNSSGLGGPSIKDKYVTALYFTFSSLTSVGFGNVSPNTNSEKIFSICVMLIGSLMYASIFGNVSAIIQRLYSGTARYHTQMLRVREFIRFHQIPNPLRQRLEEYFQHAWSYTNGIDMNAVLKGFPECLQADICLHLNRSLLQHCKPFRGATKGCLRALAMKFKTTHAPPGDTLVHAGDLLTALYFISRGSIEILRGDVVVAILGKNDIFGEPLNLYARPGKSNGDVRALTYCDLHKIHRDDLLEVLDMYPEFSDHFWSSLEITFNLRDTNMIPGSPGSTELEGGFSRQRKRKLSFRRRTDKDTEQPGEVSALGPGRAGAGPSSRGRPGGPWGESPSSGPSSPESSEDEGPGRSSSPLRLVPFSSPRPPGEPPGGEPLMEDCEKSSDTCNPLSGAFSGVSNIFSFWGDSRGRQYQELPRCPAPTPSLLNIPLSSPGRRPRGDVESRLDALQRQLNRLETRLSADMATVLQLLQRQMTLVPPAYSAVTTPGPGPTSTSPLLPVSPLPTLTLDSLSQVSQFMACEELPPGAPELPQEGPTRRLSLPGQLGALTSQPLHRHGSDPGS
Sequence of hERG channel (IKr) (Q12809 whole entry): as above
Sequence of SDF-1 binding domain of CXCR4 (P61073 whole entry, the tested form may be a part): as the sequence (P61073 whole entry) above

Structure (SMILES): c1cc(CN2CCCNCCNCCCNCC2)ccc1CN1CCCNCCNCCCNCC1 [AMD-3100, reference compound]
concentration effective in counteracting/blocking SDF-1 function (SDF-1/CXCR4 [1]): ~1000 nM | effect of SDF-1 on cAMP reduction (SDF-1/CXCR4 [1]): blocked significantly in a dose-dependent manner

Structure (SMILES): c1cnc(NCc2ccc(CNc3ncccn3)cc2)nc1 [MSX-122, N-(4-((pyrimidin-2-ylamino)methyl)benzyl)-pyrimidin-2-amine]
EC50 [2]: 0.6 nM | concentration effective in counteracting/blocking SDF-1 function (SDF-1/CXCR4 [1]): 10 nM | effect of SDF-1 on cAMP reduction (SDF-1/CXCR4 [1]): blocked significantly in a dose-dependent manner | blood levels [3]: sustained blood levels | plasma levels ([4]; for 10 hours): above 100 ng/ml and > 342 nM | Tmax ([4]; rat, plasma, oral, read-out: initial Tmax (converted)): ~30 min | half lives [5, 9]: support once per day dosing | plasma concentrations [5, 9]: micromolar | pharmacokinetics / dose proportionality of plasma levels ([5]; female cynomolgus monkeys, oral 1, 5 and 10 mg/kg): sustained pharmacokinetics with plasma levels that were relatively dose proportional | mutagenicity (In vitro Ames test): no evidence of mutagenicity | structural or numerical chromosome aberrations (CHO cells): no statistically significant increase in structural or numerical chromosome aberrations | inhibitory effect on hERG channel currents (hERG channel): do not exert a significant inhibitory effect | inhibition at 1 µM (hERG channel (IKr)): 0.2% | signs or symptoms of toxicity during the study [6]: No signs or symptoms of toxicity | toxicity upon termination from blood serum chemistry or gross necropsy [6]: no toxicity was observed | plasma concentrations maintained throughout the study ([6]; after day 1): micromolar | Cmax ([6]; both sexes, rat, in vivo, po): 2000 ng/mL to 4000 ng/mL and 6.8 µM to 13.6 µM | Cmax ([7]; both sexes, cynomolgus monkey, in vivo, po, cynomolgus monkeys, 1,000 and 2,000 mg/kg orally once per day for 5 days): 5.1 µM to 12 µM and 1500 ng/mL to 3500 ng/mL | gross necropsy ([7]; cynomolgus monkeys dosed at 2000 mg/kg): no abnormalities or signs of toxicity | blood serum chemistry [7, 10]: no abnormalities | plasma concentrations maintained throughout the study [7, 10]: micromolar | signs or symptoms of toxicity [7, 10]: No drug-related signs or symptoms of toxicity | clinical observations (stool) ([7]; cynomolgus monkeys, 1,000 and 2,000 mg/kg, may have been caused by excipients): loose and watery stool in a subset of the animals | hot flashes (hot flashes): resolved greatly

Structure (SMILES): Cc1ccc(NCc2ccc(CNc3ccc(C)cc3)cc2)cc1 [MSX-139]
IC50 (SDF-1/CXCR4 [8]): 10 nM

Structure (SMILES): Cc1c(C)c(CNc2ccccc2)c(C)c(C)c1CNc1ccccc1 [MSX-172]
IC50 (SDF-1/CXCR4 [8]): 10 nM

Structure (SMILES): Clc1nc(Cl)nc(NCc2ccc(CNc3nc(Cl)nc(Cl)n3)cc2)n1 [MSX-190]
IC50 (SDF-1/CXCR4 [8]): 10 nM

Structure (SMILES): COc1ccccc1NCc1ccc(CNc2ccccc2OC)cc1 [MSX-206]
IC50 (SDF-1/CXCR4 [8]): 10 nM

Structure (SMILES): COCc1ccc(CNc2ncccn2)cc1 [MSX-208]
IC50 (SDF-1/CXCR4 [8]): 100 nM

Structure (SMILES): c1ccc(OCc2ccc(CNc3ncccn3)cc2)cc1 [MSX-209]
IC50 (SDF-1/CXCR4 [8]): 10 nM

Structure (SMILES): c1ccc(OCc2ccc(CNc3ncccn3)cc2)nc1 [MSX-212]
IC50 (SDF-1/CXCR4 [8]): 100 nM

Structure (SMILES): O=C(O)c1cccc(NCc2ccc(CNc3cccc(C(=O)O)c3)cc2)c1 [MSX-214]
IC50 (SDF-1/CXCR4 [8]): 100 nM

Structure (SMILES): Clc1ccc(NCc2ccc(CNc3ncccn3)cc2)nc1 [MSX-219]
IC50 (SDF-1/CXCR4 [8]): 10 nM

Structure (SMILES): N=C(N)NCc1ccc(CNC(=N)N)cc1 [WZ5S]
melting point: 278 to 281 °C (dec.)

Structure (SMILES): O=C(Nc1ccccc1)c1cc(C(=O)Nc2ccccc2)cc(C(=O)Nc2ccccc2)c1 [WZ20]
melting point: 318 to 320 °C

Further lines, results first:

IC50 (SDF-1/CXCR4 [8]): 10 nM
Structure (SMILES): c1cncc(NCc2ccc(CNc3cccnc3)cc2)c1 [MSX-163]

IC50 (SDF-1/CXCR4 [8]): < 100 nM
Structure (SMILES): c1ccc(NCCc2ccc(CCNc3ccccc3)cc2)cc1 [MSX-170]

IC50 (SDF-1/CXCR4 [8]): > 100 nM
Structure (SMILES): c1ccc(NCc2ccc(CNc3ccccc3)c3ccccc23)cc1 [MSX-175]

IC50 (SDF-1/CXCR4 [8]): 1000 nM
Structure (SMILES): c1ccc(SCc2ccc(CSc3ccccc3)cc2)cc1 [MSX-211]

melting point: 42 to 43 °C
Structure (SMILES): c1ccc(NCCNCc2ccc(CNCCNc3ccccc3)cc2)cc1 [WZ8]

melting point: 126 to 127 °C
Structure (SMILES): c1ccc(NCc2ccc(CNc3ccccc3)cc2)cc1 [WZ13]
